Measurements taken from patent publication US12325697B2 (Nimbus Clio, Inc., priority 2021, dated 2025).

The molecules below were run against Recombinant human Cbl-b (aa 36-427) (Homo sapiens (Human), UniProt Q13191) (assay: Cbl-b Biochemical Assay (TR-FRET)). Details: read-out: TR-FRET hCbl-b IC50.
Protocol: Recombinant human Cbl-b (aa 36-427) was expressed in E. coli, purified and biotinylated in vitro. The protein was diluted to 12 nM in freshly prepared assay buffer consisting of 50 mM HEPES, pH 7.0, 100 mM NaCl, 5 mM MgCl2, 0.01% Triton-X 100, 0.01% BSA and 1 mM DTT. Recombinant human Src (aa 254-536)-[…]-Zap-70 (aa 281-297) fusion protein was expressed in E. coli and purified. Protein was diluted in assay buffer to 2-5 nM and supplemented with ATP to 1 mM. Fluorescein-BODIPY labeled UBE[…]([…])-Ub was prepared by conjugating ubiquitin (Ub) labeled at its N-terminus with Fluorescein-BODIPY maleimide (ThermoFisher Catalog no B10250) to E. coli expressed and purified UBE[…]([…]) [see Dou et al Nature Structural and Molecular Biology 8: 982-987, 2013]. Recombinant human UBE2D2([…]) was expressed in E. coli, purified and ubiquitinated and Bodipy labelled in vitro. Protein was diluted to 200 nM in assay buffer without MgCl2 (or Cisbio PPI buffer). Streptavidin-Terbium was added to 2 nM and EDTA to 10 mM, to provide a binding assay mix. Compounds were dissolved in DMSO and diluted to prepare a ten-point dilution series. 100 nl of each compound concentration was dispensed in duplicate in a 384 well black assay plate using acoustic dispensing. Wells for maximum signal controls received 100 nl of DMSO only and wells for minimum signal controls received 100 nl of a reference inhibitor compound at a final assay concentration of […] to produce 100% inhibition. 5 μl of diluted Cbl-b enzyme was added to all wells of the assay plate and incubated at RT for 30-60 min. The enzyme assay was initiated by addition of 5 μl of Src-Zap/ATP mix to all wells, and the plate incubated at RT for 60 min. The enzyme reaction was terminated and the binding reaction was initiated by adding 10 μl of binding assay mix to all wells and incubating the plate at RT for 60 min prior to assay read. Final assay conditions consisted of 6 nM Cbl-b, 1-2.5 nM Src-Zap70, 0.5 mM ATP, 1% (v/v) DMSO (enzyme reaction) and 100 nM UBE2D2([…])-Ub-FL-BODIPY, 5 mM EDTA, 1 nM Streptavidin-Tb (binding reaction). The HTRF assay signal was measured at 520 nm on an Envision plate reader, with reference signal at 485 or 620 nm. Data was normalized using maximum and minimum assay controls: % Inhibition=100-(100*((maximum control)-unknown)/(maximum control-minimum control)). A 4-parameter dose-response equation was used to fit the normalized dose-response data and derive an IC50 for test compounds.

Chain of Recombinant human Cbl-b (aa 36-427) (Q13191 36-427): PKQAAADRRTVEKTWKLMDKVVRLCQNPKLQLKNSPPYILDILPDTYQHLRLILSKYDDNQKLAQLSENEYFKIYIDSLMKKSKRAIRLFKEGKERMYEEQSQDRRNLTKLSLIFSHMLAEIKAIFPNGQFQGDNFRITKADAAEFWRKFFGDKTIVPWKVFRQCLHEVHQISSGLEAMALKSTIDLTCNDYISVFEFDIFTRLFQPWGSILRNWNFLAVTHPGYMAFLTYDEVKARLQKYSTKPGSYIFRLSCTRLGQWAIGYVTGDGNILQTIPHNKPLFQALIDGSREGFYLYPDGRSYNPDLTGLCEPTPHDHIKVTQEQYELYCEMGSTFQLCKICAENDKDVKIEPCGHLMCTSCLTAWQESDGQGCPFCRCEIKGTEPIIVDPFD

Compared with `Cn1cnnc1-c1ccccc1-c1cc(CO)cc(N2Cc3c(cccc3C(F)(F)F)C2=O)c1` [Example N-5, 2-(5-(Hydroxymethyl)-2′-(4-methyl-4H-1,2,4-triazol-3-yl)-[1,1′-biphenyl]-3-yl)-4-(trifluoromethyl)isoindolin-1-one], `Cn1cnnc1-c1cc(C#N)ccc1-c1cccc(N2Cc3c(cccc3C(F)(F)F)C2=O)c1` [ACC-8, 2-(4-Methyl-4H-1,2,4-triazol-3-yl)-3′-(1-oxo-4-(trifluoromethyl)isoindolin-2-yl)-[1,1′-biphenyl]-4-carbonitrile] is lower in IC50: 1 to 10 µM for the first, no more than 0.2 µM for the second. The second is the more potent here.

`CCNc1cc(-c2c(-c3nncn3C)cnn2C)cc(N2Cc3c(cc(CN4CCC(F)C4)cc3C(F)(F)F)C2=O)n1` (stereo not drawn) [ABP-3, 2-(6-(Ethylamino)-4-(1-methyl-4-(4-methyl-4H-1,2,4-triazol-3-yl)-1H-pyrazol-5-yl)pyridin-2-yl)-6-((3-fluoropyrrolidin-1-yl)methyl)-4-(trifluoromethyl)isoindolin-1-one] and `Cn1cnnc1-c1cnn(C)c1-c1cc(Cl)nc(N2Cc3c(cc(CN4CCC5(CC5)C4)cc3C(F)(F)F)C2=O)c1` [ABD-1, 6-((5-Azaspiro [2.4]heptan-5-yl)methyl)-2-(6-chloro-4-(1-methyl-4-(4-methyl-4H-1,2,4-triazol-3-yl)-1H-pyrazol-5-yl)pyridin-2-yl)-4-(trifluoromethyl)isoindolin-1-one] cannot be ordered by IC50: no more than 0.2 µM for the first, 0.2 to 1 µM for the second.

First: CCNc1cc(-c2c(-c3nncn3C)cnn2C)cc(CNC(=O)OC(C)(C)C)n1 [ABV-1, tert-Butyl ((6-(ethylamino)-4-(1-methyl-4-(4-methyl-4H-1,2,4-triazol-3-yl)-1H-pyrazol-5-yl)pyridin-2-yl)methyl)carba mate]
Second: CCNc1cc(-c2c(-c3nncn3C)cnn2C)cc(NC(=O)c2cc(OCCN3CCCC3)nc(C3CC3)n2)n1 [ABU-2, 2-Cyclopropyl-N-(6-(ethylamino)-4-(1-methyl-4-(4-methyl-4H-1,2,4-triazol-3-yl)-1H-pyrazol-5-yl)pyridin-2-yl)-6-(2-(pyrrolidin-1-yl)ethoxy)pyrimidine-4-carboxamide]
The IC50 of the first is higher: 10 to 50 µM for the first, 0.2 to 1 µM for the second.

`CCn1cc(-c2nncn2C)c(-c2cccc(N3Cc4c(cccc4C(F)(F)F)C3=O)c2)n1` [AAF-9, 2-[3-[1-Ethyl-4-(4-methyl-1,2,4-triazol-3-yl)pyrazol-3-yl]phenyl]-4-(trifluoromethyl)-3H-isoindol-1-one] and `O=C1c2cccc(C(F)(F)F)c2CN1c1cccc(-c2ccccc2-c2nnco2)c1` [ABA-4, 2-(2′-(1,3,4-Oxadiazol-2-yl)-[1,1′-biphenyl]-3-yl)-4-(trifluoromethyl)isoindolin-1-one] fall in the same range of IC50: 10 to 50 µM for the first, 10 to 50 µM for the second.

Compared with `Cn1cnnc1-c1ccccc1-c1cc(N2CCCC2)nc(N2Cc3c(cccc3C(F)(F)F)C2=O)c1` [AC-3], `COC(=O)C1(c2cc(-c3ccccc3-c3nncn3C)cc(N3Cc4c(cccc4C(F)(F)F)C3=O)n2)CC1` [ACJ-6, Methyl 1-(4-(2-(4-methyl-4H-1,2,4-triazol-3-yl)phenyl)-6-(1-oxo-4-(trifluoromethyl)isoindolin-2-yl)pyridin-2-yl) cyclopropane-1-carboxylate] is higher in IC50: 1 to 10 µM for the first, 10 to 50 µM for the second. The first is the more potent here.

First: COc1ccc([C@@H](C)Cc2nncn2C)cc1N1Cc2c(cc(CN3CCCC3)cc2C(F)(F)F)C1=O [Example F-9, (S)-2-(2-Methoxy-5-(1-(4-methyl-4H-1,2,4-triazol-3-yl)propan-2-yl)phenyl)-6-(pyrrolidin-1-ylmethyl)-4-(trifluoromethyl)isoindolin-1-one]
Second: CN(C)c1cc(-c2ccccc2-c2nncn2C)cc(N2Cc3c(cc(CO)cc3C(F)(F)F)C2=O)n1 [AD-4, 2-(6-(dimethylamino)-4-(2-(4-methyl-4H-1,2,4-triazol-3-yl)phenyl)pyridin-2-yl)-6-(hydroxymethyl)-4-(trifluoromethyl)isoindolin-1-one]
The IC50 of the first is higher: 1 to 10 µM for the first, 0.2 to 1 µM for the second. The second is the more potent here.
